{"source": "patent US5645072A", "about": "“Real time chemical exposure and risk monitor” (priority 1995, dated 1997)", "key": {"[1]": {"test": "Real-time measurement of CCl4 in combined exhaled breath of rats after a single intravenous injection (TAGA tandem mass spectrometer)", "format": "in vivo, male Fischer 344 rat", "excerpt": "Male, Fischer 344 rats, weighing 225-275 g, were purchased either with, or without, indwelling jugular vein cannulas from Charles River, Inc., Raleigh, N.C. Animals were housed singularly in solid-bottom cages with hardwood chips, and were acclimated on a 12-hr light/dark cycle prior to use. Rodent chow (NIH-07) and water were provided ad libitum throughout the acclimation period. Cannulas were maintained by periodic flushing with heparinized saline.\nIn three different experiments, either two or four animals were placed in nose-only restraint tubes (C. H. Technologies, Westwood, N.J.) with access slots that allow the cannulas to be exteriorized from the animal. Each animal restrainer was connected via a nose port to the rat manifold. The exhaled breath from the rat exited the nose port and was driven into a common mixing chamber by a continuous flow of supplied breathing air. Samples for analysis by the mass spectrometer were continually drawn from the contents of the mixing chamber. Rats placed in restraint tubes are connected to the manifold. The exhaled breath from each animal is passed into a common heated mixing chamber, where the mass spectrometer draws a sample via a drying tube.\nEach animal received a single intravenous injection of CCl4 in isotonic saline, either through the Jugular vein cannula, or via the tail vein. In the first experiment, two animals were utilized, each receiving a dose of 0.6 mg/kg body weight (BW) (250 μl volume) through the jugular vein cannula. Cannulas were flushed with saline immediately following injection. The second and third experiments utilized 4 animals each, with each animal receiving a dose of 1.5 mg/kg BW (1 ml volume) through the tail vein. In all cases, the length of time of injection was approximately 1 minute. The combined exhaled breath from the exposed animals was measured continuously to determine the concentration of CCl4 exhaled. The resulting concentration data were adjusted to account for dilution by the flow of supplied breathing air and divided by the number of rats to allow expression as ng CCl4 /l air per rat.\nThe expired breath from the rats was monitored by interfacing the rats to a tandem mass spectrometer. The manifold was a modification of a human breath interface patented by Kenny and Kelly (1991) U.S. Pat. No. 5,042,501 herein incorporated by reference. This device can accommodate up to six rats connected by the nose-only restraint tubes mentioned above. Breathing air (1000 ml/min) is constantly supplied to the rats through the center tube (175 ml volume) of the manifold at a rate greater than the combined ventilation rate of the animals on the system, and can be adjusted for the number of rats being monitored. Re-breathing of the exhaled air was considered to be negligible. The exhaled breath from each rat flows into a common heated mixing chamber (300 ml volume) from which the mass spectrometer continuously draws its sample. The excess exhaled air is vented from the mixing chamber with negligible flow restriction via a large bore hole exit tube. Intensity data from the mass spectrometer was converted to concentration (ppb) through the use of external standards and a calibration curve for carbon tetrachloride. A new calibration curve was generated each day of experimentation.\nDuring these experiments, the expired breath of the rats was monitored in real-time using a Sciex Trace Atmospheric Gas Analyzer (TAGA) 6000E tandem mass spectrometer (Sciex, Thornhill, Ontario, Canada) equipped with a low-pressure chemical ionization source (LPCI). The TAGA combines sampling and analysis into one rapid operation, while maintaining a very high level of sensitivity and selectivity (Dawson et al. 1982a; 1982b). The TAGA consists of a LPCI source and two mass filters in series, separated by a gas-collision region. Organic molecules in the sampled air stream are ionized directly at approximately 1 torr by the chemical reactions generated about a Townsend discharge electrode. […]"}, "[2]": {"conditions": "cited from earlier work"}, "[3]": {"conditions": "Paustenbach et al., 1988, cited from earlier work"}, "[4]": {"conditions": "0.6 mg/kg BW, jugular vein cannula, two rats, FIG. 3a"}}}
{"smiles": "ClC(Cl)(Cl)Cl", "note": "[CCl4, carbon tetrachloride]", "values": [{"measurement": "first pass elimination through the lung", "setting": "[1]; [4]", "value": "extremely rapid"}, {"measurement": "levels available for subsequent distribution into the entire blood volume", "setting": "[1]; [4]", "value": "very low levels"}, {"measurement": "fraction of CCl4 held up in the circulating blood supply", "setting": "[1]; 1.5 mg/kg BW, tail vein, four rats, FIG. 3b, compared with jugular vein", "value": "larger fraction"}, {"measurement": "elimination through the lung (exhalation profile)", "setting": "[1]; 1.5 mg/kg BW, tail vein, four rats, FIG. 3b, repeat gave same pattern", "value": "initial sharp peak"}, {"measurement": "time for which the decay of the CCl4 can be followed after the injection before returning to baseline", "setting": "[1]; FIGS. 3a and 3b, single i.v. injection", "value": "30 to 35", "unit": "min"}, {"measurement": "Tmax", "setting": "[1]; rat, exhaled breath, iv, single i.v. injection, 0.6 mg/kg jugular vein or 1.5 mg/kg tail vein, consistent with calculated sample-introduction delay (28.5 seconds), read-out: peak concentration of CCl4 in exhaled breath occurred in (time from the end of the injection) (converted)", "value": "~30", "unit": "s"}, {"measurement": "acetone in exhaled breath (biomarker of CCl4-induced lipid peroxidation)", "setting": "[1]; single i.v. injection of CCl4", "value": "not detectable"}, {"measurement": "Partition coefficient Blood: Air", "setting": "[2]; Gargas et al., 1986b", "value": 4.52}, {"measurement": "Partition coefficient Liver: Blood", "setting": "[2]; Gargas et al., 1986b", "value": 3.14}, {"measurement": "Partition coefficient Slowly perfused: Blood", "setting": "[2]; Gargas et al., 1986b", "value": 2.0}, {"measurement": "Partition coefficient Richly perfused: Blood", "setting": "[2]; Set equivalent to partition coefficient for liver: blood", "value": 3.14}, {"measurement": "Vmaxc (Metabolism)", "setting": "[3]; body weight 250 g", "value": 13.8, "unit": "μg CCl4 /min per kg"}, {"measurement": "Km (Metabolism)", "setting": "[3]", "value": 0.25, "unit": "µg/mL"}]}
